# Test results as given in PubChem BioAssay AID1745844 (Carcinogenic Potency Database (CPDB), 2022).
# Where “and” joins values, the source holds several entries; their conditions need not be identical. Equal values may be shown once. Calls of active or inactive are those of the source. How the calls were made is not given here.
# Test system: rodent lifetime carcinogenesis bioassay, tumor incidence TD50
# Test: carcinogenic potency in animals, long-term in vivo studies, CPDB compilation (AID 1745844)
compound,measurement,setting,value
CC=CC(=O)Oc1c(C(C)CCCCCC)cc([N+](=O)[O-])cc1[N+](=O)[O-] (stereo not drawn),carcinogen call,"mouse, strain B6AKF1, females, oral dosing, site: any site (literature study), lesion: several types, types named in the paper, dosed 76 weeks, study length 76 weeks",negative (inactive)
same,carcinogen call,"mouse, strain B6AKF1, females, oral dosing, site: liver, lesion: hepatoma, dosed 76 weeks, study length 76 weeks",negative (inactive)
same,carcinogen call,"mouse, strain B6AKF1, females, oral dosing, site: lung, lesion: adenoma, dosed 76 weeks, study length 76 weeks",negative (inactive)
same,TD50,"mouse, strain B6AKF1, males, oral dosing, site: any site (literature study), lesion: several types, types named in the paper, dosed 76 weeks, study length 76 weeks",11.9 mg/kg/day (inactive)
same,TD50,"mouse, strain B6AKF1, males, oral dosing, site: liver, lesion: hepatoma, dosed 76 weeks, study length 76 weeks",2.07 mg/kg/day (inactive)
same,TD50,"mouse, strain B6AKF1, males, oral dosing, site: lung, lesion: adenoma, dosed 76 weeks, study length 76 weeks",19.1 mg/kg/day (inactive)
same,TD50,"mouse, strain B6C3F1, females, oral dosing, site: any site (literature study), lesion: several types, types named in the paper, dosed 76 weeks, study length 76 weeks",1.21 mg/kg/day (inactive)
same,TD50,"mouse, strain B6C3F1, females, oral dosing, site: liver, lesion: hepatoma, dosed 76 weeks, study length 76 weeks",2.5 mg/kg/day (inactive)
same,carcinogen call,"mouse, strain B6C3F1, females, oral dosing, site: lung, lesion: several types, types named in the paper, dosed 76 weeks, study length 76 weeks",negative (inactive)
same,TD50,"mouse, strain B6C3F1, males, oral dosing, site: any site (literature study), lesion: several types, types named in the paper, dosed 76 weeks, study length 76 weeks",0.405 mg/kg/day (inactive)
same,TD50,"mouse, strain B6C3F1, males, oral dosing, site: liver, lesion: hepatoma, dosed 76 weeks, study length 76 weeks",2.32 mg/kg/day (inactive)
same,carcinogen call,"mouse, strain B6C3F1, males, oral dosing, site: lung, lesion: several types, types named in the paper, dosed 76 weeks, study length 76 weeks",negative (inactive)
CC(=O)CN(C)N=O,TD50,"rat, strain MRC, females, by gavage, site: esophagus, lesion: several types, types named in the paper, dosed 67 weeks, study length 76 weeks",0.16 mg/kg/day
same,TD50,"rat, strain MRC, females, by gavage, site: liver, lesion: several types, types named in the paper, dosed 67 weeks, study length 76 weeks",0.268 mg/kg/day
same,TD50,"rat, strain MRC, females, by gavage, site: nasal and paranasal cavity, lesion: several types, types named in the paper, dosed 67 weeks, study length 76 weeks",0.0167 mg/kg/day
same,TD50,"rat, strain MRC, females, by gavage, site: pharynx, lesion: several types, types named in the paper, dosed 67 weeks, study length 76 weeks",0.0758 mg/kg/day
same,TD50,"rat, strain MRC, males, by gavage, site: esophagus, lesion: several types, types named in the paper, dosed 51 weeks, study length 58 weeks",0.0642 mg/kg/day
same,TD50,"rat, strain MRC, males, by gavage, site: liver, lesion: several types, types named in the paper, dosed 51 weeks, study length 58 weeks",0.252 mg/kg/day
same,TD50,"rat, strain MRC, males, by gavage, site: nasal and paranasal cavity, lesion: several types, types named in the paper, dosed 51 weeks, study length 58 weeks",0.0178 mg/kg/day
same,TD50,"rat, strain MRC, males, by gavage, site: nasopharynx, lesion: papilloma, dosed 51 weeks, study length 58 weeks",0.942 mg/kg/day
same,TD50,"rat, strain MRC, males, by gavage, site: pharynx, lesion: several types, types named in the paper, dosed 51 weeks, study length 58 weeks",0.023 mg/kg/day
CCc1cc(C(N)=S)ccn1,TD50,"mouse, strain B6C3F1, females, in feed, site: any site (literature study), lesion: several types, types named in the paper, dosed 78 weeks, study length 104 weeks",450 mg/kg/day (inactive)
same,carcinogen call,"mouse, strain B6C3F1, males, in feed, site: any site (literature study), lesion: several types, types named in the paper, dosed 78 weeks, study length 104 weeks",negative (inactive)
same,TD50,"mouse, strain BALB/c, females, by gavage, site: liver, lesion: papillary carcinoma, dosed 50 weeks, study length 69 weeks",240 mg/kg/day (inactive)
same,TD50,"mouse, strain BALB/c, females, by gavage, site: lung, lesion: adenoma, dosed 50 weeks, study length 69 weeks",124 mg/kg/day (inactive)
same,TD50,"mouse, strain BALB/c, females, by gavage, site: thyroid gland, lesion: carcinoma, dosed 50 weeks, study length 69 weeks",69.3 mg/kg/day
same,carcinogen call,"rat, strain Fischer 344, females, in feed, site: any site (literature study), lesion: several types, types named in the paper, dosed 78 weeks, study length 104 weeks",negative (inactive)
same,TD50,"rat, strain Fischer 344, females, in feed, site: liver, lesion: hepatocellular adenoma + hepatocellular carcinoma + neoplastic nodule, dosed 78 weeks, study length 104 weeks",508 mg/kg/day
same,carcinogen call,"rat, strain Fischer 344, males, in feed, site: any site (literature study), lesion: several types, types named in the paper, dosed 78 weeks, study length 103 weeks",negative (inactive)
same,TD50,"rat, strain Fischer 344, males, in feed, site: liver, lesion: hepatocellular adenoma + hepatocellular carcinoma + neoplastic nodule, dosed 78 weeks, study length 103 weeks",623 mg/kg/day
Cc1cc(C)c(N)cc1C,TD50,"mouse, strain B6C3F1, females, in feed, site: any site (literature study), lesion: several types, types named in the paper, dosed 101 weeks, study length 101 weeks",22.4 mg/kg/day
same,TD50,"mouse, strain B6C3F1, females, in feed, site: liver, lesion: hepatocellular adenoma + hepatocellular carcinoma + neoplastic nodule, dosed 101 weeks, study length 101 weeks",6.13 mg/kg/day
same,TD50,"mouse, strain B6C3F1, females, in feed, site: liver, lesion: hepatocellular carcinoma, dosed 101 weeks, study length 101 weeks",6.13 mg/kg/day
same,TD50,"mouse, strain B6C3F1, females, in feed, site: lung, lesion: alveolar/bronchiolar adenoma + alveolar/bronchiolar carcinoma, dosed 101 weeks, study length 101 weeks",47.6 mg/kg/day
same,TD50,"mouse, strain B6C3F1, males, in feed, site: any site (literature study), lesion: several types, types named in the paper, dosed 101 weeks, study length 101 weeks",52.5 mg/kg/day (inactive)
same,TD50,"mouse, strain B6C3F1, males, in feed, site: liver, lesion: hepatocellular adenoma + hepatocellular carcinoma + neoplastic nodule, dosed 101 weeks, study length 101 weeks",14.4 mg/kg/day
same,TD50,"mouse, strain CD-1 HaM/ICR, females, in feed, site: any site (literature study), lesion: several types, types named in the paper, dosed 77 weeks, study length 98 weeks",47.2 mg/kg/day
same,TD50,"mouse, strain CD-1 HaM/ICR, females, in feed, site: liver, lesion: hepatoma, dosed 77 weeks, study length 98 weeks",62.9 mg/kg/day and 62.3 mg/kg/day
same,TD50,"mouse, strain CD-1 HaM/ICR, females, in feed, site: liver, lesion: several types, types named in the paper, dosed 77 weeks, study length 98 weeks",60.4 mg/kg/day
same,TD50,"mouse, strain CD-1 HaM/ICR, females, in feed, site: lung, lesion: several types, types named in the paper, dosed 77 weeks, study length 98 weeks",52.8 mg/kg/day and 64.7 mg/kg/day
same,TD50,"mouse, strain CD-1 HaM/ICR, males, in feed, site: all sites, lesion: all vascular tumors, dosed 77 weeks, study length 98 weeks",260 mg/kg/day
same,TD50,"mouse, strain CD-1 HaM/ICR, males, in feed, site: any site (literature study), lesion: several types, types named in the paper, dosed 77 weeks, study length 98 weeks",40.3 mg/kg/day
same,TD50,"mouse, strain CD-1 HaM/ICR, males, in feed, site: liver, lesion: hepatoma, dosed 77 weeks, study length 98 weeks",46.2 mg/kg/day and 44.2 mg/kg/day
same,TD50,"mouse, strain CD-1 HaM/ICR, males, in feed, site: liver, lesion: several types, types named in the paper, dosed 77 weeks, study length 98 weeks",35.4 mg/kg/day
same,TD50,"mouse, strain CD-1 HaM/ICR, males, in feed, site: lung, lesion: several types, types named in the paper, dosed 77 weeks, study length 98 weeks",40 mg/kg/day and 63 mg/kg/day
same,TD50,"rat, strain Charles River CD (Sprague-Dawley), males, in feed, site: any site (literature study), lesion: several types, types named in the paper, dosed 77 weeks, study length 98 weeks",37.2 mg/kg/day
same,TD50,"rat, strain Charles River CD (Sprague-Dawley), males, in feed, site: liver, lesion: hepatoma, dosed 77 weeks, study length 98 weeks",98.5 mg/kg/day
same,TD50,"rat, strain Charles River CD (Sprague-Dawley), males, in feed, site: liver, lesion: several types, types named in the paper, dosed 77 weeks, study length 98 weeks",47.9 mg/kg/day
same,carcinogen call,"rat, strain Charles River CD (Sprague-Dawley), males, in feed, site: subcutaneous tissue, lesion: several types, types named in the paper, dosed 77 weeks, study length 98 weeks",positive
same,TD50,"rat, strain Fischer 344, females, in feed, site: any site (literature study), lesion: several types, types named in the paper, dosed 101 weeks, study length 101 weeks",396 mg/kg/day
same,TD50,"rat, strain Fischer 344, females, in feed, site: liver + lung, lesion: hepatocellular carcinoma + neoplastic nodule + alveolar/bronchiolar adenoma + alveolar/bronchiolar carcinoma, dosed 101 weeks, study length 101 weeks",20.4 mg/kg/day
same,TD50,"rat, strain Fischer 344, females, in feed, site: liver, lesion: hepatocellular adenoma + hepatocellular carcinoma + neoplastic nodule, dosed 101 weeks, study length 101 weeks",27.2 mg/kg/day
same,TD50,"rat, strain Fischer 344, females, in feed, site: liver, lesion: hepatocellular carcinoma + neoplastic nodule, dosed 101 weeks, study length 101 weeks",27.2 mg/kg/day
same,TD50,"rat, strain Fischer 344, females, in feed, site: liver, lesion: hepatocellular carcinoma, dosed 101 weeks, study length 101 weeks",142 mg/kg/day
same,TD50,"rat, strain Fischer 344, females, in feed, site: lung, lesion: alveolar/bronchiolar adenoma + alveolar/bronchiolar carcinoma, dosed 101 weeks, study length 101 weeks",88.1 mg/kg/day
same,TD50,"rat, strain Fischer 344, males, in feed, site: any site (literature study), lesion: several types, types named in the paper, dosed 101 weeks, study length 101 weeks",138 mg/kg/day
same,TD50,"rat, strain Fischer 344, males, in feed, site: liver, lesion: bile duct carcinoma, dosed 101 weeks, study length 101 weeks",268 mg/kg/day
same,TD50,"rat, strain Fischer 344, males, in feed, site: liver, lesion: hepatocellular adenoma + hepatocellular carcinoma + neoplastic nodule, dosed 101 weeks, study length 101 weeks",43.8 mg/kg/day
same,TD50,"rat, strain Fischer 344, males, in feed, site: liver, lesion: hepatocellular carcinoma + neoplastic nodule, dosed 101 weeks, study length 101 weeks",43.8 mg/kg/day
same,TD50,"rat, strain Fischer 344, males, in feed, site: liver, lesion: hepatocellular carcinoma, dosed 101 weeks, study length 101 weeks",71.8 mg/kg/day
same,TD50,"rat, strain Fischer 344, males, in feed, site: lung, lesion: alveolar/bronchiolar adenoma + alveolar/bronchiolar carcinoma, dosed 101 weeks, study length 101 weeks",180 mg/kg/day
CC(=O)[O-].CC(=O)[O-].CCC(=O)c1ccc(F)c([C@@H]2C[C@@H]2NC(=O)Nc2ccc(C#N)cn2)c1O.[Zn+2],TD50,"hamster, strain Syrian Golden, females, in feed, site: any site (literature study), lesion: several types, types named in the paper, dosed 78 weeks, study length 78 weeks",177000 mg/kg/day (inactive)
same,carcinogen call,"hamster, strain Syrian Golden, females, in feed, site: liver, lesion: hemangioma, dosed 78 weeks, study length 78 weeks",negative (inactive)
same,TD50,"hamster, strain Syrian Golden, males, in feed, site: any site (literature study), lesion: several types, types named in the paper, dosed 106 weeks, study length 111 weeks",54100 mg/kg/day (inactive)
same,carcinogen call,"hamster, strain Syrian Golden, males, in feed, site: liver, lesion: hemangioma, dosed 106 weeks, study length 111 weeks",negative (inactive)
same,TD50,"rat, strain MRC, females, in feed, site: peripheral nervous system, lesion: one or several types, types not named, dosed 143 weeks, study length 146 weeks",35400 mg/kg/day (inactive)
same,carcinogen call,"rat, strain MRC, females, in feed, site: skin, lesion: one or several types, types not named, dosed 143 weeks, study length 146 weeks",negative (inactive)
same,carcinogen call,"rat, strain MRC, males, in feed, site: any site (literature study), lesion: several types, types named in the paper, dosed 139 weeks, study length 141 weeks",negative (inactive)
